Laboratory results taken from article PMC9269301, “Phytochemical Analysis, Antioxidant, Antimicrobial, and Cytotoxic Activity of Different Extracts of Xanthoparmelia stenophylla Lichen from Stara Planina, Serbia” (Plants, 2022).
Converted amounts (≈) assume the structure as drawn. Like-named read-outs stand apart in the source and are kept apart here. Marks after values point to notes of the source that are not given here.

Assays:
[1] = tested on: P. aeruginosa ATCC 27853; assay: Microdilution with resazurin, antibacterial; assay type: cell-based, Pseudomonas aeruginosa
Procedure: (§1) The tested methanol, acetone, and n-hexane extracts, as well as the component (usnic acid) of X. stenophylla, were dissolved in 10% dimethyl sulfoxide (DMSO) and then diluted into the nutrient liquid medium. DMSO was obtained from Acros Organics (Fair Lawn, NJ, USA). Resazurin was obtained from Alfa Aesar GmbH & Co. (KG, Karlsruhe, Germany).
(§2) The antimicrobial activity of the extracts and components was tested against 19 microorganisms. The experiment involved 15 strains of bacteria (i.e., 6 standard strains: Staphylococcus aureus ATCC 6538, Bacillus subtilis ATCC 6633, Proteus mirabilis ATCC 12453, Pseudomonas aeruginosa ATCC 27853, Klebsiella pneumoniae ATCC 70063, and Escherichia coli ATCC 25922; 9 isolates: Staphylococcus aureus, Escherichia coli, Salmonella enterica, Salmonella Typhimurium, Proteus mirabilis, Klebsiella pneumoniae, Pseudomonas aeruginosa, Bacillus subtilis, and Bacillus cereus). In addition, four fungal strains (i.e., two standard strains: Candida albicans ATCC 10231 and Aspergillus niger ATCC 16888; two isolates: Saccharomyces cerevisiae and Candida albicans) were tested. All isolates were a generous gift from the Institute of Public Health, Kragujevac. The other microorganisms were provided from the collection held by the Microbiology Laboratory Faculty of Science, University of Kragujevac.
(§3) The bacterial suspensions were prepared by the direct colony method. The turbidity of the initial suspension was adjusted using a densitometer (DEN-1, BioSan, Riga, Latvia). When adjusted to the turbidity of the 0.5 McFarland’s standard (Andrews, 2005) the bacteria suspension contained approximately 10^8 colony-forming units (CFU)/mL, and the suspension of yeast contained 10^6 CFU/mL; 1:100 dilutions of the initial suspension were additionally prepared in sterile 0.85% saline. The suspensions of fungal spores were prepared by gentle stripping of spores from slopes with growing mycelia. The resulting suspensions were 1:1000 diluted in sterile 0.85% saline.
(§4) Antimicrobial activity was tested by determining the minimum inhibitory concentrations (MICs) and minimum microbicidal concentrations (MBCs) using the microdilution plate method with resazurin [56]. The 96-well plates were prepared by dispensing 100 μL of Mueller–Hinton broth for bacteria and Sabouard broth for fungi into each well. A 10 μL aliquot from the stock solution of the tested extract or component was added to the first row of the plate. Then, two-fold serial dilutions were performed using a multichannel pipette. The obtained concentration range was from 10 to 0.08 mg/mL. The method is described in detail in [76].
(§5) Each test included growth control and sterility control.
(§6) Minimum microbicidal concentrations were determined by plating 10 μL of samples from wells where no indicator color change or no mycelia growth was recorded on a nutrient agar medium. At the end of the incubation period, the lowest concentration with no growth (no colony) was defined as the minimum microbicidal concentration.

[2] = tested on: S. aureus ATCC 6538 biofilm; assay: Antibiofilm activity (biofilm formation, crystal violet); assay type: cell-based, Staphylococcus aureus; settings: S. aureus ATCC 6538, 37 °C, 48 h
Procedure: The ability of S. aureus ATCC 6538 and P. aeruginosa to form biofilms was assayed as described by O’Toole et al. with some modifications. Briefly, the tissue culture of 96-well microtiter plates (Sarstedt, Germany) were prepared by dispensing 100 µL of nutrient broth (i.e., Mueller–Hinton broth) into each well. Ten microliters of spore suspension (10^8 colony-forming units (CFU)/mL) was added into each row. […] Biofilms formed by adherent cells in 96-well microtiter plates were stained with crystal violet (0.1% w/v; Fluka AG, Buchs, Switzerland) and incubated at room temperature for 20 min. Excess stain was rinsed off by thorough washing with deionized water and then with […] of 96% ethanol. Optical densities (ODs) of stained adherent bacteria were determined with an enzyme-linked immunosorbent assay (ELISA) plate reader (RT-2100C, Rayto, Shenzhen, China) at a 630 nm wavelength. Only broth served as a control to check sterility and nonspecific binding of media. To compensate for background absorbance, OD readings from sterile medium, fixative, and dye were averaged and subtracted from all test values. All tests were performed in duplicate. The tissue culture of 96-well microtiter plates (Sarstedt, Nümbrecht, Germany) were prepared by dispensing 100 µL of nutrient broth (i.e., Mueller–Hinton broth) into each well. From the stock solution of the tested extracts or components (concentration: 20 mg/mL), 100 µL was added to the first row of the microtiter plate. Two-fold serial dilutions were then made using a multichannel pipette, following which 10 µL of fresh bacterial suspension was added to each well. The inoculated microtiter plates were incubated at 37 °C for 48 h. After incubation, the content of each well was gently removed by tapping the microtiter plates. […] Biofilms formed by adherent cells in 96-well microtiter plates were stained with crystal violet (0.1% w/v; Fluka AG, Switzerland) and incubated at room temperature for 20 min. Excess stain was rinsed off by thorough washing with deionized water and then with […] densities (ODs) of stained adherent bacteria were determined with an enzyme-linked immunosorbent assay (ELISA) plate reader at a 630 nm wavelength. […] Only broth or broth with extracts served as a control to check the sterility and nonspecific binding of media. To compensate for background absorbance, OD readings from sterile medium, extracts, fixative, and dye were averaged and subtracted from all test values. All tests were performed in duplicate.

[3] = tested on: HeLa cells (cervical adenocarcinoma); assay: MTT assay; assay type: cell-based, human; settings: HeLa
[4] = Superoxide anion radical scavenging activity (NBT/NADH/PMS); assay type: biochemical; settings: mean ± SD, triplicate
Procedure: All chemicals for the antioxidant activity test were purchased from Sigma Aldrich. All measurements were conducted in triplicate, and a Shimadzu UV-1800 spectrophotometer was used for all measurements during antioxidant activity experiments. The IC50 value was used for comparing different radical scavenging effects between investigated extracts, isolated compounds, and positive controls. […] [75] with modifications. […] To initiate the reaction, 0.1 mL of phenazine methosulfate (PMS) solution ([…] in 0.1 M phosphate buffer at pH 7.4) was added to each tube. The mixture was incubated at room temperature for 5 min, and then the absorbance was measured at 560 nm relative to the blank. Ascorbic acid, gallic acid, and Trolox were used as positive controls, and a decrease in absorbance indicated increased superoxide anion radical scavenging activity. […] Ac stands for absorbance of the control (which contains all reagents, except the tested extract or compound), and As is the absorbance of the sample.

[5] = tested on: S. aureus ATCC 6538; assay: Microdilution with resazurin, antibacterial; assay type: cell-based, Staphylococcus aureus
Procedure: as §1, §2, §3, §4, §5, §6

[6] = tested on: S. aureus (isolate); assay: Microdilution with resazurin, antibacterial; assay type: cell-based, Staphylococcus aureus
Procedure: as §1, §2, §3, §4, §5, §6

In the case of usnic acid, the MBC ([1]; extracts and usnic acid) was less than 10000 µg/mL, the MIC ([1]; extracts and usnic acid) was 10000 µg/mL and the “BIC50 (biofilm inhibitory concentration, 50% reduction of biofilm coverage)” value [2] was 1750 µg/mL. For the same compound, the “BIC90 (biofilm inhibitory concentration, 90% reduction of biofilm coverage)” value [2] was 5000 µg/mL, the “GI50 (50% growth inhibition)” value ([3]; 24 h) was greater than 100 µg/mL and the IC50 ([3]; 24 h) was greater than 100 µg/mL. The “TGI (total growth inhibition)” value ([3]; 24 h) was greater than 100 µg/mL, the “GI50 (50% growth inhibition)” value ([3]; 48 h) was 99.16 ± 15.59 µg/mL and the IC50 ([3]; 48 h) was greater than 100 µg/mL. For the same compound, the “TGI (total growth inhibition)” value ([3]; 48 h) was greater than 100 µg/mL, the “GI50 (50% growth inhibition)” value ([3]; 72 h) was 64.28 ± 8.34 µg/mL and the “TGI (total growth inhibition)” value ([3]; 72 h) was 86.91 ± 5.42 µg/mL. The IC50 ([3]; 72 h, listed as UA) was greater than 100 µg/mL, the “Superoxide Anion Radical Scavenging Activity (IC50)” value [4] was 90.32 ± 0.95 ^a,b,c,d µg/mL and the MBC ([5]; extracts and usnic acid) was 625 µg/mL. It also gave an MIC ([5]; extracts and usnic acid) of 312.5 µg/mL, an MBC ([6]; extracts and usnic acid) of 156 µg/mL and an MIC ([6]; extracts and usnic acid) of 156 µg/mL.

With `CN(C)[C@@H]1C(O)=C(C(N)=O)C(=O)[C@@]2(O)C(O)=C3C(=O)c4c(O)cccc4[C@@](C)(O)[C@H]3C[C@@H]12` [TC, tetracycline] the MBC ([1]; Pseudomonas aeruginosa, ATCC27853, antibiotics, read-out: MBC) was 32 µg/mL (≈ 72 µM), the MIC ([1]; Pseudomonas aeruginosa, ATCC27853, antibiotics, read-out: MIC) was 4 µg/mL (≈ 9 µM) and the “BIC90 (biofilm inhibitory concentration, 90% reduction of biofilm coverage)” value [2] was greater than 1000 µg/mL. For the same compound, the IC50 ([2]; Staphylococcus aureus, ATCC6538, read-out: BIC50 (biofilm inhibitory concentration, 50% reduction of biofilm coverage)) was 249 µg/mL (≈ 560 µM), the MBC ([5]; Staphylococcus aureus, ATCC6538, antibiotics, read-out: MBC) was 6 µg/mL (≈ 13.5 µM) and the MIC ([5]; Staphylococcus aureus, ATCC6538, antibiotics, read-out: MIC) was 3 µg/mL (≈ 6.75 µM). The MBC ([6]; Staphylococcus aureus, antibiotics, read-out: MBC) was less than 0.06 µg/mL and the MIC ([6]; Staphylococcus aureus, antibiotics, read-out: MIC) was less than 0.06 µg/mL.
